Experimental data: PMC10321319 (Nature, 2022)
Where two headings read alike, the source gives them in different places.

Columns and labels:
K. pneumoniae 10031 = settings: n=2
A. baumannii 0301 = settings: lipid analog table
[1] = Pharmacokinetics assessment, plasma; type: in vivo; settings: mice, single subcutaneous dose 10 mg/kg
A. baumannii-0301-mcr-1 = assay: Neutropenic thigh infection model; type: in vivo, Acinetobacter baumannii; settings: neutropenic mice, 20 mg/kg subcutaneous, 24 h
A. baumannii 0282 = assay: MIC, microbial susceptibility assay; type: cell-based, Acinetobacter baumannii; settings: XDR A. baumannii 0282, mcr-1 −
[2] = test system: A. baumannii ATCC17978 (pMQ124xlab1-mcr-1); assay: MIC, microbial susceptibility assay; type: cell-based, Acinetobacter baumannii; settings: n=2
A. baumannii ATCC17978 [3] = assay: CHIR-090 inhibition assay, growth curves; type: cell-based, Acinetobacter baumannii
HT29 cells = assay: MTT cytotoxicity assay; type: cell-based, human; settings: 48 h incubation
E. faecium Com15 = assay: MIC, microbial susceptibility assay; type: cell-based; settings: n=2
[4] = test system: A. baumannii 0301 (mcr-1); assay: MIC, microbial susceptibility assay; type: cell-based, Acinetobacter baumannii
S. aureus SH1000 = assay: MIC, microbial susceptibility assay; type: cell-based; settings: n=2
A. baumannii 0287 = assay: MIC, microbial susceptibility assay; type: cell-based, Acinetobacter baumannii; settings: XDR A. baumannii 0287, mcr-1 −
A. baumannii 0295 = assay: MIC, microbial susceptibility assay; type: cell-based, Acinetobacter baumannii; settings: XDR A. baumannii 0295, mcr-1 −
[5] = test system: A. baumannii 0295 (mcr-1 +); assay: MIC, microbial susceptibility assay; type: cell-based, Acinetobacter baumannii; settings: XDR A. baumannii 0295, mcr-1 +
A. baumannii 0286 = assay: MIC, microbial susceptibility assay; type: cell-based, Acinetobacter baumannii; settings: XDR A. baumannii 0286, mcr-1 −
A. baumannii ATCC17978 [6] = assay: MIC, microbial susceptibility assay; type: cell-based, Acinetobacter baumannii; settings: n=2
[7] = test system: A. baumannii 0287 (mcr-1 +); assay: MIC, microbial susceptibility assay; type: cell-based, Acinetobacter baumannii; settings: XDR A. baumannii 0287, mcr-1 +
[8] = test system: K. pneumoniae 0497 (mcr-1); settings: K. pneumoniae 0497, mcr-1 clinical isolate; n=2
[9] = test system: A. baumannii SM1536 (pMQ124xlab1-mcr-1); assay: MIC, microbial susceptibility assay; type: cell-based, Acinetobacter baumannii
[10] = test system: E. cloacae ATCC13047 (ΔphoP/Q+phoP/Q)
[11] = test system: A. baumannii-SM1536-mcr-1; assay: Neutropenic thigh infection model; type: in vivo, Acinetobacter baumannii; settings: neutropenic mice, 20 mg/kg subcutaneous, 24 h
P. vulgaris 49132 = settings: Proteus vulgaris, intrinsically colistin resistant (L-Ara4N)
[12] = test system: E. cloacae ATCC13047 (ΔphoP/Q); settings: E. cloacae ATCC13047 (ΔphoP/Q); n=2
A. baumannii 0296 = assay: MIC, microbial susceptibility assay; type: cell-based, Acinetobacter baumannii; settings: XDR A. baumannii 0296, mcr-1 −
E. cloacae 0150 = assay: MIC, microbial susceptibility assay; type: cell-based, Enterobacter cloacae; settings: n=2
M. osloensis 10973 = settings: eptA intrinsic resistance
K. pneumoniae ATCC13883 = settings: n=2
N. meningitidis 13090 = settings: eptA intrinsic resistance
[13] = test system: S. typhimurium 0635 (mcr-1); assay: MIC, microbial susceptibility assay; type: cell-based; settings: S. typhimurium 0635, mcr-1 clinical isolate; n=2
[14] = test system: K. pneumoniae ATCC13883 (pMQ124-mcr-1)
P. aeruginosa PA01 = assay: MIC, microbial susceptibility assay; type: cell-based, Pseudomonas aeruginosa; settings: n=2
[15] = test system: pairs of colistin sensitive and resistant strains of K. pneumoniae and A. baumannii (mcr-1 plasmid); type: cell-based

colistin
MIC (K. pneumoniae 10031): 0.5 mg/L | MIC (A. baumannii 0301): 0.25 mg/L | plasma drug exposure (pharmacokinetic profile) [1]: parity in plasma drug exposure | bacterial burden in thigh relative to initial infection (A. baumannii-0301-mcr-1): did not reduce the bacterial burden below the level of the initial infection | MIC (A. baumannii 0282): 0.5 mg/L | MIC [2]: 32 mg/L | A. baumannii growth with antibiotic plus CHIR-090 (A. baumannii ATCC17978 [3]; antibiotic at 10x MIC with LpxC inhibitor CHIR-090, 48 h): rescued A. baumannii growth | A. baumannii growth with antibiotic alone (A. baumannii ATCC17978 [3]; concentrations above MIC (10x MIC), 48 h): completely abrogated A. baumannii growth | cytotoxicity to human cells, IC50 (HT29 cells): > 512 mg/L | MIC (E. faecium Com15): >128 mg/L | MIC ([4]; A. baumannii 0301 (mcr-1), lipid analog table): >128 mg/L | Fold increase in MIC ([4]; A. baumannii 0301 upon introduction of mcr-1): >512 | MIC ([4]; A. baumannii-0301 transformed with mcr-1 (PDR strain)): > 64 mg/L | MIC (S. aureus SH1000): >128 mg/L | MIC (A. baumannii 0287): 0.5 mg/L | MIC (A. baumannii 0295): 0.25 mg/L | MIC [5]: >128 mg/L | MIC (A. baumannii 0286): 1 mg/L | MIC (A. baumannii ATCC17978 [6]; A. baumannii 17978, ESKAPE panel): 1 mg/L | MIC (A. baumannii ATCC17978 [6]; A. baumannii ATCC17978, mcr-1 engineered pairs): 1 mg/L | MIC [7]: 64 mg/L | MIC [8]: 32 mg/L | MIC ([9]; A. baumannii SM1536 (pMQ124xlab1-mcr-1), n=2): 128 mg/L | Fold increase in MIC ([9]; A. baumannii SM1536 upon introduction of mcr-1): 256 | MIC ([10]; E. cloacae ATCC13047 (ΔphoP/Q+phoP/Q), n=2): 32 mg/L | Fold increase in MIC ([10]; E. cloacae ATCC13047 upon introduction of phoP/Q): 32 | susceptibility of strain ([10]; E. cloacae phoP/Q deletion rescued with phoP/Q plasmid): resistant | bacterial burden in thigh relative to initial infection [11]: did not reduce the bacterial burden below the level of the initial infection | MIC (P. vulgaris 49132): > 128 mg/L | MIC [12]: 1 mg/L | MIC (A. baumannii 0296): 0.25 mg/L | MIC (E. cloacae 0150): 1 mg/L | MIC (M. osloensis 10973): 8 mg/L | MIC (K. pneumoniae ATCC13883): 1 mg/L | MIC (N. gonorrhoeae 49226): >128 mg/L | MIC (N. meningitidis 13090): 128 mg/L | MIC [13]: 16 mg/L | Fold increase in MIC ([14]; K. pneumoniae 13883 upon introduction of mcr-1): 64 | MIC ([14]; K. pneumoniae ATCC13883 (pMQ124-mcr-1), n=2): 64 mg/L | MIC (P. aeruginosa PA01): 1 mg/L | increase in MIC upon mcr-1 expression [15]: ≥ 32 fold | MIC (A. baumannii SM1536; lipid analog table): 0.5 mg/L | MIC (A. baumannii SM1536; n=2): 0.5 mg/L
